Test results published in US9265253B2, “Use of macrocyclic picolinamides as fungicides” (DOW AGROSCIENCES LLC, priority 2013, dated 2016).
Read-outs that look alike come from different tables or passages of the source.

Tests used:
[1] = system: Puccinia triticina; Synonym: Puccinia recondite f. Sp. Tritici; assay: Wheat Brown Rust (PUCCRT) disease control; format: in vivo; conditions: Puccinia triticina, topical; for pest or weed control at 100 ppm: rate 100 ppm; for pest or weed control at 121.5 g/ha: rate 121.5 g/H
Method in brief: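 Brown rust on first-leaf Yuma wheat: spore inoculation before or after spray application (acetone/Triton X-100 solution, or EC with Trycol in track spray), overnight 100% RH at 22 °C, disease developed at 24 °C. Severity scored 0–100% and converted to percent control against untreated.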

[2] = system: Mycosphaerella graminicola; Anamorph: Septoria tritici; assay: Leaf Blotch of Wheat (SEPTTR) disease control; format: in vivo; conditions: Zymoseptoria tritici; for pest or weed control at 100 ppm: rate 100 ppm; for pest or weed control at 121.5 g/ha: rate 121.5 g/H
Method in brief: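 Wheat seedlings (Yuma, first leaf emerged) sprayed to run-off with compound in acetone/water with 110 ppm Triton X-100, or track-sprayed as EC with 0.1% Trycol 5941. Septoria tritici spores inoculated before or after treatment. Dew chambers, then 20 °C greenhouse. Percent disease control derived from severity (0–100%) relative to untreated plants.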

[3] = 24 h, 1 Day Protectant, read-out: PUCCRT 1 DP disease control
[4] = 72 h, 3 Day Curative, read-out: PUCCRT 3 DC disease control
[5] = 24 h, 1 Day Protectant, read-out: SEPTTR 1 DP disease control
[6] = 72 h, 3 Day Curative, read-out: SEPTTR 3 DC disease control

Compound	pest or weed control at 100 ppm [1, 3]	pest or weed control at 121.5 g/ha [1, 3]	pest or weed control at 100 ppm [1, 4]	pest or weed control at 121.5 g/ha [1, 4]	pest or weed control at 100 ppm [2, 5]	pest or weed control at 121.5 g/ha [2, 5]	pest or weed control at 100 ppm [2, 6]	pest or weed control at 121.5 g/ha [2, 6]
COc1ccnc(C(=O)N[C@H]2CCC[C@H](CCC(C)C)[C@@H](Oc3ccccc3)[C@H](C)OC2=O)c1OC(C)=O [Compound F62]	80 to 100%	80 to 100%	80 to 100%	0 to 80%	80 to 100%	80 to 100%	80 to 100%	80 to 100%
COc1ccnc(C(=O)N[C@H]2CCC[C@H](CCC(C)C)[C@@H](OCCCC(F)(F)F)[C@H](C)OC2=O)c1OC(C)=O [Compound F65]	80 to 100%	80 to 100%	80 to 100%	0 to 80%	80 to 100%	80 to 100%	80 to 100%	80 to 100%
COc1ccnc(C(=O)N[C@H]2CCC[C@H](CCC(C)C)[C@@H](OC)[C@H](C)OC2=O)c1OC(C)=O [Compound F66]	80 to 100%	0 to 80%	80 to 100%	0 to 80%	80 to 100%	80 to 100%	80 to 100%	0 to 80%
COc1ccnc(C(=O)N[C@H]2CCC[C@H](Cc3ccc(F)cc3)[C@@H](Oc3ccccc3)[C@H](C)OC2=O)c1OC(C)=O [Compound F68]	80 to 100%	80 to 100%	80 to 100%	0 to 80%	80 to 100%	80 to 100%	80 to 100%	80 to 100%
COc1ccnc(C(=O)N[C@H]2CCC[C@H](Cc3ccc(F)cc3)[C@@H](OCC(F)F)[C@H](C)OC2=O)c1OC(C)=O [Compound F69]	80 to 100%	80 to 100%	80 to 100%	80 to 100%	80 to 100%	80 to 100%	80 to 100%	80 to 100%
COc1ccnc(C(=O)N[C@H]2CCC[C@H](CC3CCCC3)[C@@H](Oc3ccccc3)[C@H](C)OC2=O)c1OC(C)=O [Compound F71]	80 to 100%	80 to 100%	80 to 100%	0 to 80%	80 to 100%	80 to 100%	80 to 100%	80 to 100%
COc1ccc(C[C@H]2CCC[C@H](NC(=O)c3nccc(OC)c3OC(C)=O)C(=O)O[C@@H](C)[C@@H]2OCC2CC2)cc1 [Compound F72]	80 to 100%	80 to 100%	80 to 100%	0 to 80%	80 to 100%	80 to 100%	80 to 100%	80 to 100%
COc1ccnc(C(=O)N[C@H]2CCC[C@H](CC3CCCC3)[C@@H](OCC3CC3)[C@H](C)OC2=O)c1OC(C)=O [Compound F73]	80 to 100%	80 to 100%	80 to 100%	80 to 100%	80 to 100%	80 to 100%	80 to 100%	80 to 100%
CCCO[C@@H]1[C@@H](CC2CCCC2)CCC[C@H](NC(=O)c2nccc(OC)c2OC(C)=O)C(=O)O[C@H]1C [Compound F74]	80 to 100%	80 to 100%	80 to 100%	0 to 80%	80 to 100%	80 to 100%	80 to 100%	80 to 100%
COc1ccnc(C(=O)N[C@H]2CCC[C@H](CC3CCCC3)[C@@H](OCC(C)C)[C@H](C)OC2=O)c1OC(C)=O [Compound F75]	80 to 100%	80 to 100%	80 to 100%	0 to 80%	80 to 100%	80 to 100%	80 to 100%	80 to 100%
COc1ccnc(C(=O)N[C@H]2CCC[C@H](C)[C@@H](OCc3ccccc3)[C@H](C)OC2=O)c1OC(C)=O [Compound F77]	80 to 100%	80 to 100%	80 to 100%	80 to 100%	80 to 100%	80 to 100%	80 to 100%	80 to 100%
COc1ccnc(C(=O)N[C@H]2CCC[C@H](CCOCC3CC3)[C@@H](OCC3CC3)[C@H](C)OC2=O)c1OC(C)=O [Compound F83]	80 to 100%	80 to 100%	80 to 100%	80 to 100%	80 to 100%	0 to 80%		0 to 80%
COc1ccnc(C(=O)N[C@H]2CCC[C@H](CCOc3ccccc3)[C@@H](OCC3CC3)[C@H](C)OC2=O)c1OC(C)=O [Compound F84]	80 to 100%	80 to 100%	80 to 100%	80 to 100%	80 to 100%	0 to 80%	80 to 100%	
COc1ccnc(C(=O)N[C@H]2CCC[C@@H]3CCO[C@H]3[C@H](C)OC2=O)c1OC(C)=O [Compound F85]		80 to 100%		80 to 100%		0 to 80%		
COc1ccnc(C(=O)N[C@H]2CCC[C@H](CCC(C)C)[C@@H](Oc3ccccc3)[C@H](C)OC2=O)c1OCOC(C)=O [Compound F89]	80 to 100%	80 to 100%	80 to 100%	0 to 80%	80 to 100%	80 to 100%	80 to 100%	80 to 100%
COc1ccnc(C(=O)N[C@H]2CCC[C@H](CCC(C)C)[C@@H](OCC(C)C)[C@H](C)OC2=O)c1OCOC(C)=O [Compound F90]	80 to 100%	80 to 100%	80 to 100%	80 to 100%	80 to 100%	80 to 100%	80 to 100%	80 to 100%
COc1ccnc(C(=O)N[C@H]2CCC[C@H](CCC(C)C)[C@@H](OC3CCCC3)[C@H](C)OC2=O)c1OCOC(C)=O [Compound F94]	80 to 100%		80 to 100%		80 to 100%		80 to 100%	
COc1ccnc(C(=O)N[C@H]2CCC[C@H](CCC(C)C)[C@@H](OC)[C@H](C)OC2=O)c1OCOC(C)=O [Compound F95]	80 to 100%	80 to 100%	80 to 100%	0 to 80%	80 to 100%	80 to 100%	80 to 100%	0 to 80%
COc1ccnc(C(=O)N[C@H]2CCC[C@H](CC3CCCCC3)[C@@H](OCC3CC3)[C@H](C)OC2=O)c1OCOC(C)=O [Compound F97]	80 to 100%	80 to 100%	80 to 100%	80 to 100%	80 to 100%	80 to 100%	80 to 100%	80 to 100%
COc1ccnc(C(=O)N[C@H]2CCC[C@H](Cc3ccc(F)cc3)[C@@H](Oc3ccccc3)[C@H](C)OC2=O)c1OCOC(C)=O [Compound F99]	80 to 100%	80 to 100%	80 to 100%	0 to 80%	80 to 100%	80 to 100%	80 to 100%	80 to 100%
C=CCO[C@@H]1[C@@H](Cc2ccc(F)cc2)CCC[C@H](NC(=O)c2nccc(OC)c2OCOC(C)=O)C(=O)O[C@H]1C [Compound F100]	80 to 100%	80 to 100%	80 to 100%	0 to 80%	80 to 100%	80 to 100%	80 to 100%	80 to 100%
COc1ccnc(C(=O)N[C@H]2CCC[C@H](Cc3ccc(F)cc3)[C@@H](OCC(F)F)[C@H](C)OC2=O)c1OCOC(C)=O [Compound F103]	80 to 100%	80 to 100%	80 to 100%	80 to 100%	80 to 100%	80 to 100%	80 to 100%	80 to 100%
